Results taken from patent EP4755384A1, “PHARMACEUTICAL COMPOSITION CONTAINING ANDROGEN RECEPTOR INHIBITOR/ANTAGONIST, METHOD AND USE” (Suzhou Kintor Pharmaceuticals, Inc., priority 2023, dated 2025).

How the values were obtained:
mice [1] = assay: In-vivo efficacy experiment 1: hair scoring in depilated mice given DHT; set-up: key: 0 = no skin darkening, 5 = complete hair growth; details: DHT 30 mg/kg subcutaneous QD
Protocol: 100 mice were deeply anesthetized. First, the hair on the back of the mice was shaved off with an animal hair clipper. Then, depilatory cream (Veet, https://item.jd.com/6291245.html) was evenly applied to the skin surface of the mice. After leaving it for 7-10 minutes, the remaining hair was gently scraped off against the hair growth direction with a depilatory spatula. Finally, the residual depilatory cream on the skin surface was thoroughly washed off with a wet wipe to avoid skin burns in the mice.
The main observation indicators of this experiment are shown in FIG. 12 (literature on hair scoring: Biomolecules & Therapeutics, 17(3), 241-248 (2009)), which is described as follows: (Score 0: No darkening of skin colour observed in any areas; Score 1: Darkening of skin area from greyish to black; Score 2: Visible short hairs; Score 3: Sparse hairs; Score 4: Dense hairs; Score 5: Complete hair growth). After depilation, the mice were photographed and scored three times a week until the end of the experiment.
100 mice were deeply anesthetized. First, the hair on the back of the mice was shaved off with an animal hair clipper. Then, depilatory cream was evenly applied to the skin surface of the mice. After leaving it for 7-10 minutes, the remaining hair was gently scraped off against the hair growth direction with a depilatory spatula. Finally, the residual depilatory cream on the skin surface was thoroughly washed off with a wet wipe to avoid skin burns in the mice.
DHT and test substances (compound of formula I and minoxidil) were administered starting on the day following depilation, which was recorded as Day 1 (the day of depilation was recorded as Day 0). 64 mice in good condition were randomly selected and assigned to each group. Table 1 Experimental grouping
According to the grouping in Table 1, and the corresponding administration dose, test substance concentration and administration volume, […] above experimental design and methods. For groups G7 and G8, which received a combined administration of the compound of formula I and minoxidil, one drug was administered first followed by the other, with the administration interval between the two drugs not exceeding 1 minute.
(§1) Starting from the first day of administration, body weight was weighed and recorded twice a week, and hair regrowth (anagen) scoring and photography were performed […], until the end of the experiment. Scoring was conducted according to the criteria described in the experimental design.

mice [2] = assay: In-vivo efficacy experiment 2: hair scoring in depilated mice given DHT; set-up: key: 0 = no skin darkening, 5 = complete hair growth; details: minoxidil 5% (50 mg/mL) 150 µL topical QD, DHT 30 mg/kg subcutaneous QD
Protocol: 120 mice were deeply anesthetized. First, the hair on the back of the mice was shaved off with an animal hair clipper. Then, depilatory cream (Veet, https://item.jd.com/6291245.html) was evenly applied to the skin surface of the mice. After leaving it for 7-10 minutes, the remaining hair was gently scraped off against the hair growth direction with a depilatory spatula. Finally, the residual depilatory cream on the skin surface was thoroughly washed off with a wet wipe to avoid skin burns in the mice.
DHT and test substances (compound of formula I and minoxidil) were administered starting on the day following depilation, which was recorded as Day 1 (the day of depilation was recorded as Day 0). 86 mice in good condition were randomly selected and assigned to each group.
The main observation indicators of this experiment are shown in FIG. 12 (literature on hair scoring: Biomolecules & Therapeutics, 17(3), 241-248 (2009)), which is described as follows: (Score 0: No darkening of skin colour observed in any areas; Score 1: Darkening of skin area from greyish to black; Score 2: Visible short hairs; Score 3: Sparse hairs; Score 4: Dense hairs; Score 5: Complete hair growth). After depilation, the mice were photographed and scored three times a week until the end of the experiment. Table 4 Experimental grouping
According to the grouping in Table 4, and the corresponding administration dose, test substance concentration and administration volume, […] above experimental design and methods. For groups G6, G7 and G8, which received a combined administration of the compound of formula I and minoxidil, one drug was administered first followed by the other, with the administration interval between the two drugs not exceeding 1 minute.
as §1

Which results are given for `Nc1cc(N2CCCCC2)nc(N)[n+]1[O-]` [minoxidil, Minoxidil]?
Hair scoring in mice, Score (mice [1]; Day 7, minoxidil 2% (20 mg/mL) 150 µL topical QD): 0.00; Hair scoring in mice, Score (mice [1]; Day 7, minoxidil 5% (50 mg/mL) 150 µL topical QD): 0.13; Hair scoring in mice, Score (mice [1]; Day 9, minoxidil 2% (20 mg/mL) 150 µL topical QD): 0.29; Hair scoring in mice, Score (mice [1]; Day 9, minoxidil 5% (50 mg/mL) 150 µL topical QD): 0.25; Hair scoring in mice, Score (mice [1]; Day 11, minoxidil 2% (20 mg/mL) 150 µL topical QD): 0.57; Hair scoring in mice, Score (mice [1]; Day 11, minoxidil 5% (50 mg/mL) 150 µL topical QD): 0.38; Hair scoring in mice, Score (mice [1]; Day 14, minoxidil 2% (20 mg/mL) 150 µL topical QD): 0.86; Hair scoring in mice, Score (mice [1]; Day 14, minoxidil 5% (50 mg/mL) 150 µL topical QD): 1.00; Hair scoring in mice, Score (mice [1]; Day 16, minoxidil 2% (20 mg/mL) 150 µL topical QD): 1.14; Hair scoring in mice, Score (mice [1]; Day 16, minoxidil 5% (50 mg/mL) 150 µL topical QD): 1.75; Hair scoring in mice, Score (mice [1]; Day 18, minoxidil 2% (20 mg/mL) 150 µL topical QD): 1.86; Hair scoring in mice, Score (mice [1]; Day 18, minoxidil 5% (50 mg/mL) 150 µL topical QD): 2.63; Hair scoring in mice, Score (mice [1]; Day 21, minoxidil 2% (20 mg/mL) 150 µL topical QD): 2.29; Hair scoring in mice, Score (mice [1]; Day 21, minoxidil 5% (50 mg/mL) 150 µL topical QD): 3.13; Hair scoring in mice, Score (mice [1]; Day 23, minoxidil 2% (20 mg/mL) 150 µL topical QD): 2.71; Hair scoring in mice, Score (mice [1]; Day 23, minoxidil 5% (50 mg/mL) 150 µL topical QD): 3.50; Hair scoring in mice (mice [2]; Day 8): 0.00; Hair scoring in mice (mice [2]; Day 11): 0.25; Hair scoring in mice (mice [2]; Day 15): 1.25; Hair scoring in mice (mice [2]; Day 17): 1.88; Hair scoring in mice (mice [2]; Day 19): 2.63; Hair scoring in mice (mice [2]; Day 21): 2.75
